Values of other authors in patent US7939561B2, “Blister packaging for acute pain regimens” (APR Applied Pharma Research s.a., priority 2006, dated 2011).

O=C(O)Cc1ccccc1Nc1c(Cl)cccc1Cl [diclofenac potassium]
behaviour in an acidic environment: tendency to precipitate
